Source: ChEMBL document CHEMBL1132879, “High potent and selective arylpiperazine derivatives as ligands for the 5-HT1A receptor” (Bioorg Med Chem Lett, 2000)

Columns and labels:
[1] = target: T1, 5-hydroxytryptamine receptor 1A (Rattus norvegicus, UniProt P19327); experiment: Displacement of [3H]8-OH-DPAT from 5-hydroxytryptamine 1A receptor of rat hippocampus membranes; type: cell membranes, Membrane
T1 sequence (P19327 whole entry): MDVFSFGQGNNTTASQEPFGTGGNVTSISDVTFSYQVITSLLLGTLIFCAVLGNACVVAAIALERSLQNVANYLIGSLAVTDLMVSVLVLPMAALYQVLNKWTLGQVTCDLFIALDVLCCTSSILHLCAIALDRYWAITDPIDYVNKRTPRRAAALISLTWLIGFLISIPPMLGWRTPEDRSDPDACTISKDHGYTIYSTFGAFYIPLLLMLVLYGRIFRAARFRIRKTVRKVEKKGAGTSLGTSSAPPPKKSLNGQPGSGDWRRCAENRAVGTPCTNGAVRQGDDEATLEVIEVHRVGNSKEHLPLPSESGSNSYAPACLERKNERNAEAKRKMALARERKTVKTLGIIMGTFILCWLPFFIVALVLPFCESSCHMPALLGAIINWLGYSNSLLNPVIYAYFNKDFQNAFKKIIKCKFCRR

[2] = target: Serotonin 1a (5-HT1a) receptor/Adrenergic receptor alpha-1 (Rattus norvegicus) (UniProt P15823+P23944+P43140+P19327); experiment: Selectivity for 5-HT1A serotonin over alpha-1-adrenergic receptors; type: protein assay
[3] = target: T2, Adrenergic receptor alpha-1 (Rattus norvegicus, UniProt P15823+P23944+P43140); experiment: Displacement of [3H]prazosin from Alpha-1 adrenergic receptor of rat cortex membranes; type: cell membranes, Membrane
T2 sequence (P15823 whole entry): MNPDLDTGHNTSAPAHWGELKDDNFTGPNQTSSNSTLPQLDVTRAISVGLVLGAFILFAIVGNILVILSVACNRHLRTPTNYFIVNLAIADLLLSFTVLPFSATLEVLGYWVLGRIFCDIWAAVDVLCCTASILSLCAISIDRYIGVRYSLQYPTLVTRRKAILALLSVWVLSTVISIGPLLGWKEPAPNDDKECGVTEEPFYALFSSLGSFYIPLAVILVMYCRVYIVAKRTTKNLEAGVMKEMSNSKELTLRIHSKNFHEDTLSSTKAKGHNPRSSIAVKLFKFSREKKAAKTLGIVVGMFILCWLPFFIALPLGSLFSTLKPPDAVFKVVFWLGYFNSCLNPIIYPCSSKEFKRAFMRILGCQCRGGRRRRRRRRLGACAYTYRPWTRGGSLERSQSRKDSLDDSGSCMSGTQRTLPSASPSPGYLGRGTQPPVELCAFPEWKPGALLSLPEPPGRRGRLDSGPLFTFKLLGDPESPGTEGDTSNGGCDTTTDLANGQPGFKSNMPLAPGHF
T2 sequence (P23944 whole entry): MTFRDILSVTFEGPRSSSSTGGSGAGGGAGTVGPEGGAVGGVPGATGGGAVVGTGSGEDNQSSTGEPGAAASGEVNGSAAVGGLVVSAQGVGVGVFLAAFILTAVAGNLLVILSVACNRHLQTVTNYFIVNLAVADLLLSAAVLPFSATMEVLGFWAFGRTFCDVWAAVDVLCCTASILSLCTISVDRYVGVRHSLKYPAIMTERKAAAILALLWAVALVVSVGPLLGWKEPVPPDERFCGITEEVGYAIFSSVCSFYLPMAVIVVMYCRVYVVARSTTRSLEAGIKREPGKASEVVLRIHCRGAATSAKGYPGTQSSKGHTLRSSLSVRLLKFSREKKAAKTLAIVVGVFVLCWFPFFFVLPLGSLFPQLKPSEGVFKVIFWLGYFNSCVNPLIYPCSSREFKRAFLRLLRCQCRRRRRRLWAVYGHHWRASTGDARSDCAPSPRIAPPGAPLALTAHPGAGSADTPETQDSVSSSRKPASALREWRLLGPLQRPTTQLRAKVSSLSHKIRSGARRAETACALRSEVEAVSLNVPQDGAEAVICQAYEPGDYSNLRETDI
T2 sequence (P43140 whole entry): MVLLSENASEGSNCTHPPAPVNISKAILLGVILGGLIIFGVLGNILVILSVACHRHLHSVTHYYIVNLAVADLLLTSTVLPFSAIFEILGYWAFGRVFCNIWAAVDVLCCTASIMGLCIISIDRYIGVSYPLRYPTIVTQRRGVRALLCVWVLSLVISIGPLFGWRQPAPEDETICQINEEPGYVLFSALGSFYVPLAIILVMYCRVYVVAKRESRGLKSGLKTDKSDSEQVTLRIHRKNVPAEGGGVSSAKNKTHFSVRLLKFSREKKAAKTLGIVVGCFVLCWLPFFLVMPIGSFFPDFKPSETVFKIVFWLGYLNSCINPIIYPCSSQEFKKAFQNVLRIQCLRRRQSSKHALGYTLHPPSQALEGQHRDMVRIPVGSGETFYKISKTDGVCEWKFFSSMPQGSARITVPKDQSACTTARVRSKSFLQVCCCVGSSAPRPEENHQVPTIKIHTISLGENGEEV

| SMILES | Ki [1] [nM] | Selectivity [2] | Ki [3] [nM] |
| --- | --- | --- | --- |
| Nn1c(SCCCN2CCN(c3ccccc3[N+](=O)[O-])CC2)nc2sccc2c1=O | 3 | 13 | 39.87 |
| COc1ccccc1N1CCN(CCCSc2nc3sccc3c(=O)n2N)CC1 | 0.65 | 3.8 | 2.48 |
| CCCc1cc2c(=O)n(N)c(SCCCN3CCN(c4ccccc4OC)CC3)nc2s1 | 1.4 | 14 | 19.65 |
| CCOc1ccccc1-c1nnc(SCCCN2CCN(c3ccccc3OC)CC2)s1 | 6.84 | 4.6 | 31.5 |
| CCc1cc2c(=O)n(N)c(SCCCN3CCN(c4ccccc4OC)CC3)nc2s1 | 0.19 | 115 | 21.96 |
| COc1ccccc1N1CCN(CCCSc2nc3sc4c(c3c(=O)n2N)CCC4)CC1 | 0.26 | 28 | 7.39 |
| CCc1cc2c(=O)n(N)c(SCCCN3CCN(c4ccccc4[N+](=O)[O-])CC3)nc2s1 | 9.69 | 20 | 194.8 |
| CCOc1ccccc1-c1nnc(SCCCN2CCN(c3ccccc3[N+](=O)[O-])CC2)s1 | 135 | 3 | 437 |
| COc1ccccc1N1CCN(CCCSc2nc(N)c3c(C)c(C)sc3n2)CC1 | 2.45 | 4.4 | 10.8 |

Results, then the compound that gave them:

| Ki [1] [nM] | Selectivity [2] | Ki [3] [nM] | SMILES |
| --- | --- | --- | --- |
| 1.46 | 53 | 123 | Cc1sc2nc(SCCCN3CCN(c4ccccc4[N+](=O)[O-])CC3)n(N)c(=O)c2c1C |
| 3.72 | 117 | 434 | Cc1sc2nc(SCCCN3CCN(c4ncccn4)CC3)n(N)c(=O)c2c1C |
| 0.16 | 39 | 6.26 | COc1ccccc1N1CCN(CCCSc2nc3sc(C)c(C)c3c(=O)n2N)CC1 |
| 5.06 | 73 | 366.31 | Nn1c(SCCCN2CCN(c3ncccn3)CC2)nc2sccc2c1=O |
| 9.4 | 207 | 1946 | CCc1cc2c(=O)n(N)c(SCCCN3CCN(c4ncccn4)CC3)nc2s1 |
